According to patent US11103497B2, “Treatment of imatinib resistant leukemia” (Wyeth LLC, priority 2007, dated 2021):

details: not given

Structure (SMILES)	melting point [°C]
COc1cc(Nc2c(C#N)cnc3cc(OCCN4CCN(C)CC4)c(OC)cc23)c(Cl)cc1Cl [Example 4, 4-[(2,4-Dichloro-5-methoxyphenyl)amino]-6-methoxy-7-[2-(4-methyl-1-piperazinyl)ethoxy]-3-quinolinecarbonitrile]	165 to 167
CCOc1cc2c(Nc3cc(OC)c(Cl)cc3Cl)c(C#N)cnc2cc1OCCCC1CCN(C)CC1 [Example 13, 4-[(2,4-Dichloro-5-methoxyphenyl)amino]-6-ethoxy-7-[3-(1-methylpiperidin-4-yl)propoxy]quinoline-3-carbonitrile]	148 to 151
CCOc1cc2c(Nc3cc(OC)c(Cl)cc3Cl)c(C#N)cnc2cc1OCCCN1CCN(CC)CC1 [Example 12, 4-[(2,4-Dichloro-5-methoxyphenyl)amino]-6-ethoxy-7-[3-(4-ethylpiperazin-1-yl)propoxy]quinoline-3-carbonitrile]	127 to 130
CCN1CCC(COc2cc3ncc(C#N)c(Nc4cc(OC)c(Cl)cc4Cl)c3cc2OC)CC1 [Example 9, 4-[(2,4-Dichloro-5-methoxyphenyl)amino]-7-[(1-ethylpiperidin-4-yl)methoxy]-6-methoxyquinoline-3-carbonitrile]	192 to 195
CCOc1cc2c(Nc3cc(OC)c(Cl)cc3Cl)c(C#N)cnc2cc1OCCCN1CCN(C)CC1 [Example 10, 4-[(2,4-Dichloro-5-methoxyphenyl)amino]-6-ethoxy-7-[3-(4-methylpiperazin-1-yl)propoxy]quinoline-3-carbonitrile]	137 to 138

Other lines, results leading:

melting point [°C]	Structure (SMILES)
141 to 143	CCOc1cc2c(Nc3cc(OC)c(Cl)cc3Cl)c(C#N)cnc2cc1OCCN1CCN(C)CC1 [Example 14, 4-[(2,4-Dichloro-5-methoxyphenyl)amino]-6-ethoxy-7-[2-(4-methyl-1-piperazinyl)ethoxy]quinoline-3-carbonitrile]
174 to 176	CCOc1cc2c(Nc3cc(OC)c(Cl)cc3Cl)c(C#N)cnc2cc1OCCC1CCN(C)CC1 [Example 15, 4-[(2,4-Dichloro-5-methoxyphenyl)amino]-6-ethoxy-7-[2-(1-methylpiperidin-4-yl)ethoxy]quinoline-3-carbonitrile]

details: patients; cited from earlier work

Structure (SMILES)	adverse effects
Cc1nc(Nc2ncc(C(=O)Nc3c(C)cccc3Cl)s2)cc(N2CCN(CCO)CC2)n1 [Dasatinib]	hematologic toxicity and edema
